# Assays:
# [1] = tested on: Geobacillus stearothermophilus spores (ATCC 7953); assay: Fluorescence from enzyme substrates incubated with Geobacillus stearothermophilus spores in culture media; format: cell-based; details: 5×10^3 spores, substrate 0.1 mg/mL, 60° C.
# Procedure: Culture media was prepared by dissolving 5 g/L peptone C (BD 211921) and 12 g/L phytone peptone (BD BBL 211906) in deionized water. The pH was adjusted with 1 N NaOH or 0.1 N HCl, the media brought to volume, and then filter sterilized with a 0.22 micron PES filter. Stock solutions ([…]) of 8′-fluoro-4′-methylumbelliferyl-α-D-glucopyranoside, 6′-fluoro-4′-methylumbelliferyl-α-D-glucopyranoside, and 4-methylumbelliferyl-α-D-glucopyranoside were prepared in DMSO. The aforementioned substrates were added to culture media at a final concentration of 0.1 mg/ml and media were then 0.22 μm filter sterilized.
# Culture media (pH 6) containing 8′-fluoro-4′-methylumbelliferyl-[…]-D-glucopyranoside (0.1 mg/mL) was added to two wells (100 microliters per well) of a black 96-well microtiter plate with (NUNC #165301, Thermo Fisher Scientific). A 5 microliter aqueous suspension containing 5×10^3 Geobacillus stearothermophilus spores (ATCC 7953) was added to each well of the microtiter plate. Next, the contents of each well were mixed using a multiple aspiration/delivery sequence with the pipet. […] The top of the plate was covered with an optically clear sealing film (product #4311971, Applied Biosystems Corporation, Foster City, California). The plate was warmed at 60° C. and shaken in a linear direction. Fluorescence readings (360 nm excitation/450 nm emission at 50% gain) were taken from the top of the plate. A reading was taken at an initial time point of 10 seconds and then at +1 minute intervals thereafter. A Synergy Neo2 fluorescence plate reader (BioTek Company, Winooski, Vermont) was used. In Table 1, the mean fluorescence values detected (RFU) at times of 10 seconds, +5 minutes, +10 minutes, and +30 minutes are reported. The mean fluorescence values detected for the control wells were 614 RFU at 10 seconds; 547 RFU at +5 minutes; 504 RFU at +10 minutes, and 438 RFU at +30 minutes.
# Culture media (pH 7) containing 8′-fluoro-4′-methylumbelliferyl-[…]-D-glucopyranoside (0.1 mg/mL) was added to two wells (100 microliters per well) of a black 96-well microtiter plate with (NUNC #165301, Thermo Fisher Scientific). A 5 microliter aqueous suspension containing 5×10^3 Geobacillus stearothermophilus spores (ATCC 7953) was added to each well of the microtiter plate. Next, the contents of each well were mixed using a multiple aspiration/delivery sequence with the pipet. […] The top of the plate was covered with an optically clear sealing film (product #4311971, Applied Biosystems Corporation). The plate was warmed at 60° C. and shaken in a linear direction. Fluorescence readings (360 nm excitation/450 nm emission at 50% gain) were taken from the top of the plate. A reading was taken at an initial time point of 10 seconds and then at +1 minute intervals thereafter. A Synergy Neo2 fluorescence plate reader (BioTek Company) was used. In Table 2, the mean fluorescence values detected (RFU) at times of 10 seconds, +5 minutes, +10 minutes, and +30 minutes are reported. The mean fluorescence values detected for the control wells were 601 RFU at 10 seconds; 533 RFU at +5 minutes; 495 RFU at +10 minutes, and 430 RFU at +30 minutes.
# Culture media (pH 8) containing 8′-fluoro-4′-methylumbelliferyl-[…]-D-glucopyranoside (0.1 mg/mL) was added to two wells (100 microliters per well) of a black 96-well microtiter plate with (NUNC #165301, Thermo Fisher Scientific). A 5 microliter aqueous suspension containing 5×10^3 Geobacillus stearothermophilus spores (ATCC 7953) was added to each well of the microtiter plate. Next, the contents of each well were mixed using a multiple aspiration/delivery sequence with the pipet. […] The top of the plate was covered with an optically clear sealing film (product #4311971, Applied Biosystems Corporation). The plate was warmed at 60° C. and shaken in a linear direction. Fluorescence readings (360 nm excitation/450 nm emission at 50% gain) were taken from the top of the plate. […]
# [2] = tested on: Geobacillus stearothermophilus spores (ATCC 7953); assay: as above; format: cell-based; details: substrate 0.1 mg/mL, 60° C.
# [3] = pH 6 culture media, 5×10^3 spores
# [4] = pH 6 culture media, 5×10^6 spores
# [5] = pH 7 culture media, 5×10^6 spores
# [6] = pH 8 culture media, 5×10^3 spores
# [7] = pH 8 culture media, 5×10^6 spores
# [8] = pH 9 culture media, 5×10^3 spores
# [9] = pH 9 culture media, 5×10^6 spores
smiles,measurement,setting,value
"Cc1cc(=O)oc2cc(O[C@H]3O[C@H](CO)[C@@H](O)[C@H](O)[C@H]3O)ccc12 [MUG, 4′-methylumbelliferyl-α-D-glucopyranoside]","MEASURED FLUORESCENCE, RFU 10 sec","[1]; pH 6 culture media, 10 sec, 360 nm excitation/450 nm emission",646 RFU
same,"MEASURED FLUORESCENCE, RFU +10 min",[1]; pH 6 culture media,588 RFU
same,"MEASURED FLUORESCENCE, RFU +5 min","[1]; pH 7 culture media, +5 min",634 RFU
same,"MEASURED FLUORESCENCE, RFU +10 min",[1]; pH 7 culture media,655 RFU
same,"MEASURED FLUORESCENCE, RFU +30 min",[1]; pH 7 culture media,1219 RFU
same,"MEASURED FLUORESCENCE, RFU +30 min",[1]; pH 8 culture media,1725 RFU
same,"MEASURED FLUORESCENCE, RFU +5 min",[2]; [3],585 RFU
same,"MEASURED FLUORESCENCE, RFU +30 min",[2]; [3],1210 RFU
same,"MEASURED FLUORESCENCE, RFU 10 sec",[2]; [4],4600 RFU
same,"MEASURED FLUORESCENCE, RFU +5 min",[2]; [4],9209 RFU
same,"MEASURED FLUORESCENCE, RFU +10 min",[2]; [4],10250 RFU
same,"MEASURED FLUORESCENCE, RFU +30 min",[2]; [4],9996 RFU
same,"MEASURED FLUORESCENCE, RFU 10 sec","[2]; pH 7 culture media, 5×10^3 spores",676 RFU
same,"MEASURED FLUORESCENCE, RFU 10 sec",[2]; [5],10780 RFU
same,"MEASURED FLUORESCENCE, RFU +5 min",[2]; [5],22443 RFU
same,"MEASURED FLUORESCENCE, RFU +10 min",[2]; [5],26791 RFU
same,"MEASURED FLUORESCENCE, RFU +30 min",[2]; [5],24911 RFU
same,"MEASURED FLUORESCENCE, RFU 10 sec",[2]; [6],704 RFU
same,"MEASURED FLUORESCENCE, RFU +5 min",[2]; [6],661 RFU
same,"MEASURED FLUORESCENCE, RFU +10 min",[2]; [6],700 RFU
same,"MEASURED FLUORESCENCE, RFU 10 sec",[2]; [7],12320 RFU
same,"MEASURED FLUORESCENCE, RFU +5 min",[2]; [7],32993 RFU
same,"MEASURED FLUORESCENCE, RFU +10 min",[2]; [7],51516 RFU
same,"MEASURED FLUORESCENCE, RFU +30 min",[2]; [7],53517 RFU
same,"MEASURED FLUORESCENCE, RFU 10 sec",[2]; [8],698 RFU
same,"MEASURED FLUORESCENCE, RFU +5 min",[2]; [8],634 RFU
same,"MEASURED FLUORESCENCE, RFU +10 min",[2]; [8],621 RFU
same,"MEASURED FLUORESCENCE, RFU +30 min",[2]; [8],1153 RFU
same,"MEASURED FLUORESCENCE, RFU 10 sec",[2]; [9],5777 RFU
same,"MEASURED FLUORESCENCE, RFU +5 min",[2]; [9],19462 RFU
same,"MEASURED FLUORESCENCE, RFU +10 min",[2]; [9],43381 RFU
same,"MEASURED FLUORESCENCE, RFU +30 min",[2]; [9],64660 RFU
